{"source": "paper PMC6429214", "about": "“Design, Synthesis and Biological Evaluation of Isoxazole-Based CK1 Inhibitors Modified with Chiral Pyrrolidine Scaffolds” (Molecules, 2019)", "experiment_in_all_cases": "33PanQinase panel", "type_in_all_cases": "biochemical", "key": {"[1]": {"molecular_target": "T1, ACV-R1 (Homo sapiens, UniProt Q04771)", "T1 construct": "purchased ProQinase", "details": "ACV-R1, 1 µM; read-out: Residual Activity (%)", "outline": "(§1)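 Kinases were screened with the inhibitor at a single concentration of 1 µM. Activity was measured radiometrically with 33P, and each reaction mix contained 1% DMSO. Data are expressed as percentage residual activity compared with DMSO control.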"}, "[2]": {"molecular_target": "T2, ASK1 (Homo sapiens, UniProt Q99683)", "T2 construct": "purchased ProQinase", "details": "ASK1, 1 µM; read-out: Residual Activity (%)", "outline": "as §1"}, "[3]": {"molecular_target": "T3, BLK (Homo sapiens, UniProt P51451)", "T3 construct": "purchased ProQinase", "details": "read-out: Residual Activity (%)", "outline": "as §1"}, "[4]": {"molecular_target": "T4, CAMK2G (Homo sapiens, UniProt Q13555)", "T4 construct": "purchased ProQinase", "T4 sequence (Q13555 whole entry)": "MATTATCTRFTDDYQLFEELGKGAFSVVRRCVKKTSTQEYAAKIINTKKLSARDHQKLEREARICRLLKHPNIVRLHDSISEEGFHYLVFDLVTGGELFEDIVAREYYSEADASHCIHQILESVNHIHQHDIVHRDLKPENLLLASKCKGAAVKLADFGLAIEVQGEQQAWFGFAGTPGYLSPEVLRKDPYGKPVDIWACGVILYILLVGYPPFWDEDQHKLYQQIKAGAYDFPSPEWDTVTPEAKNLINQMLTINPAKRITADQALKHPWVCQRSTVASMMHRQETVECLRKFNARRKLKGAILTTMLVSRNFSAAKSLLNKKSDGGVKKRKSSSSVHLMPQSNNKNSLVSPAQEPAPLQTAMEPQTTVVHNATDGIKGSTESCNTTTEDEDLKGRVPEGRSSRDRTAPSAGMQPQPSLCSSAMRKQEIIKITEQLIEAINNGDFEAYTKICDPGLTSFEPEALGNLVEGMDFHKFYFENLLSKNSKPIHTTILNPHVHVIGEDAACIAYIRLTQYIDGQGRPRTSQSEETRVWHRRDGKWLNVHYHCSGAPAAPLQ", "details": "read-out: Residual Activity (%)", "outline": "as §1"}, "[5]": {"molecular_target": "T5, CDK19/CycC (Homo sapiens, UniProt Q9BWU1)", "T5 construct": "purchased ProQinase", "details": "read-out: Residual Activity (%)", "outline": "as §1"}, "[6]": {"molecular_target": "T6, CDK2/CycA2 (Homo sapiens, UniProt P24941)", "T6 construct": "purchased ProQinase", "details": "CDK2/CycA2, 1 µM; read-out: Residual Activity (%)", "outline": "as §1"}, "[7]": {"molecular_target": "T7, CDK3/CycC (Homo sapiens, UniProt Q00526)", "T7 construct": "purchased ProQinase", "details": "read-out: Residual Activity (%)", "outline": "as §1"}, "[8]": {"molecular_target": "T8, EPHA1 (Homo sapiens, UniProt P21709)", "T8 construct": "purchased ProQinase", "details": "EPHA1, 1 µM; read-out: Residual Activity (%)", "outline": "as §1"}, "[9]": {"molecular_target": "T9, IKK-alpha (Homo sapiens, UniProt O15111)", "T9 construct": "purchased ProQinase", "details": "read-out: Residual Activity (%)", "outline": "as §1"}, "[10]": {"molecular_target": "T10, IRAK4 (untagged) (Homo sapiens, UniProt Q9NWZ3)", "T10 construct": "purchased ProQinase", "details": "read-out: Residual Activity (%)", "outline": "as §1"}, "[11]": {"molecular_target": "T11, JAK2 (Homo sapiens, UniProt O60674)", "T11 construct": "purchased ProQinase", "details": "JAK2, 1 µM; read-out: Residual Activity (%)", "outline": "as §1"}, "[12]": {"molecular_target": "T12, LYN (Homo sapiens, UniProt P07948)", "T12 construct": "purchased ProQinase", "details": "read-out: Residual Activity (%)", "outline": "as §1"}, "[13]": {"molecular_target": "T13, MARK4 (Homo sapiens, UniProt Q96L34)", "T13 construct": "purchased ProQinase", "T13 sequence (Q96L34 whole entry)": "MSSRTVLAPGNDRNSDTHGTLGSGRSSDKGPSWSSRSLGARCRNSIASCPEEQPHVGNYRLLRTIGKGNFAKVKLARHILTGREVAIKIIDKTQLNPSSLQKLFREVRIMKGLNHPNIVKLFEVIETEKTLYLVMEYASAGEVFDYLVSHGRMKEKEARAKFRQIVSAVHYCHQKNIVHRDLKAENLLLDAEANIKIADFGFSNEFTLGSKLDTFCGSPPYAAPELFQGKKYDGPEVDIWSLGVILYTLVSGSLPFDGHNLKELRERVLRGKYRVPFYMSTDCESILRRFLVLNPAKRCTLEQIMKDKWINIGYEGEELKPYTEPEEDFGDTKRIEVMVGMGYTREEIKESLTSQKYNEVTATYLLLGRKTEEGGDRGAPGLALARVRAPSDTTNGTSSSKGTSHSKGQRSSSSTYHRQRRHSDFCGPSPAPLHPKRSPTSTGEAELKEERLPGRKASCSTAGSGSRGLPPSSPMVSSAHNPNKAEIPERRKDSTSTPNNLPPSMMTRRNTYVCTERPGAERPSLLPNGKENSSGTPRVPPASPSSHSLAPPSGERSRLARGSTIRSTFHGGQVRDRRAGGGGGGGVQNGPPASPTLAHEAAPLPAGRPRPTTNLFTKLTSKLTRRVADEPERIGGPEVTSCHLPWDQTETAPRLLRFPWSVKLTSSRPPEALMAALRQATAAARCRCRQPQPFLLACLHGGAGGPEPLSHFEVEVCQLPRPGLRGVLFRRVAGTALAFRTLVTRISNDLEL", "details": "MARK4, 1 µM; read-out: Residual Activity (%)", "outline": "as §1"}, "[14]": {"molecular_target": "T14, MKK4 (Homo sapiens, UniProt P45985)", "T14 construct": "purchased ProQinase", "details": "MKK4, 1 µM; read-out: Residual Activity (%)", "outline": "as §1"}, "[15]": {"molecular_target": "T15, MKK7 (Homo sapiens, UniProt O14733)", "T15 construct": "purchased ProQinase", "T15 sequence (O14733 whole entry)": "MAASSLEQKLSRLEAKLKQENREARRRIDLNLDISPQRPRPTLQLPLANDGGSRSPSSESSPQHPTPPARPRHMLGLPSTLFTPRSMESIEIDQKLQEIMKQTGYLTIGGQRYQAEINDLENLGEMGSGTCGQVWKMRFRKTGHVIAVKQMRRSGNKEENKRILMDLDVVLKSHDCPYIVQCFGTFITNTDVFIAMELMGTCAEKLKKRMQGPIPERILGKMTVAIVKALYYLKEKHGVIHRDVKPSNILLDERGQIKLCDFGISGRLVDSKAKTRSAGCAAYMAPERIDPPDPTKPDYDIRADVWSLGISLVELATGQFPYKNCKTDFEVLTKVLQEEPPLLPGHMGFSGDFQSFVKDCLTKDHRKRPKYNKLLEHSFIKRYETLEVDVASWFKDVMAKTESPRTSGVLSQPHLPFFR", "details": "MKK7, 1 µM; read-out: Residual Activity (%)", "outline": "as §1"}, "[16]": {"molecular_target": "T16, MST4 (Homo sapiens, UniProt Q9P289)", "T16 construct": "purchased ProQinase", "T16 sequence (Q9P289 whole entry)": "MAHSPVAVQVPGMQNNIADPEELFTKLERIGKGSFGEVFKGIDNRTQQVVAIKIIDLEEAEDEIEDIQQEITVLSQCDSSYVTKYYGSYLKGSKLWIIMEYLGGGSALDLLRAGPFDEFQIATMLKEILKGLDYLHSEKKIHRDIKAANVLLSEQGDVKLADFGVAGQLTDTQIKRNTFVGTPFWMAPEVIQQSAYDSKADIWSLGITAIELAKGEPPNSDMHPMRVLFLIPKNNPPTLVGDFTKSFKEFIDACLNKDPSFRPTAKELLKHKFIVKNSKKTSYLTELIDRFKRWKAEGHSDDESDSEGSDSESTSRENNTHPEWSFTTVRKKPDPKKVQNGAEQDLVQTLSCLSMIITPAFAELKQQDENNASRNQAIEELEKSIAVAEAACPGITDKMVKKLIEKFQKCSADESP", "details": "MST4, 1 µM; read-out: Residual Activity (%)", "outline": "as §1"}, "[17]": {"molecular_target": "T17, NEK6 (Homo sapiens, UniProt Q9HC98)", "T17 construct": "purchased ProQinase", "details": "NEK6, 1 µM; read-out: Residual Activity (%)", "outline": "as §1"}, "[18]": {"molecular_target": "T18, NIK (Homo sapiens, UniProt Q99558)", "T18 construct": "purchased ProQinase", "details": "read-out: Residual Activity (%)", "outline": "as §1"}, "[19]": {"molecular_target": "T19, PAK1 (Homo sapiens, UniProt Q13153)", "T19 construct": "purchased ProQinase", "details": "PAK1, 1 µM; read-out: Residual Activity (%)", "outline": "as §1"}, "[20]": {"molecular_target": "T20, PAK7 (Homo sapiens, UniProt Q9P286)", "T20 construct": "purchased ProQinase", "details": "PAK7, 1 µM; read-out: Residual Activity (%)", "outline": "as §1"}, "[21]": {"molecular_target": "T21, PASK (Homo sapiens, UniProt Q96RG2)", "T21 construct": "purchased ProQinase", "T21 sequence (Q96RG2 whole entry)": "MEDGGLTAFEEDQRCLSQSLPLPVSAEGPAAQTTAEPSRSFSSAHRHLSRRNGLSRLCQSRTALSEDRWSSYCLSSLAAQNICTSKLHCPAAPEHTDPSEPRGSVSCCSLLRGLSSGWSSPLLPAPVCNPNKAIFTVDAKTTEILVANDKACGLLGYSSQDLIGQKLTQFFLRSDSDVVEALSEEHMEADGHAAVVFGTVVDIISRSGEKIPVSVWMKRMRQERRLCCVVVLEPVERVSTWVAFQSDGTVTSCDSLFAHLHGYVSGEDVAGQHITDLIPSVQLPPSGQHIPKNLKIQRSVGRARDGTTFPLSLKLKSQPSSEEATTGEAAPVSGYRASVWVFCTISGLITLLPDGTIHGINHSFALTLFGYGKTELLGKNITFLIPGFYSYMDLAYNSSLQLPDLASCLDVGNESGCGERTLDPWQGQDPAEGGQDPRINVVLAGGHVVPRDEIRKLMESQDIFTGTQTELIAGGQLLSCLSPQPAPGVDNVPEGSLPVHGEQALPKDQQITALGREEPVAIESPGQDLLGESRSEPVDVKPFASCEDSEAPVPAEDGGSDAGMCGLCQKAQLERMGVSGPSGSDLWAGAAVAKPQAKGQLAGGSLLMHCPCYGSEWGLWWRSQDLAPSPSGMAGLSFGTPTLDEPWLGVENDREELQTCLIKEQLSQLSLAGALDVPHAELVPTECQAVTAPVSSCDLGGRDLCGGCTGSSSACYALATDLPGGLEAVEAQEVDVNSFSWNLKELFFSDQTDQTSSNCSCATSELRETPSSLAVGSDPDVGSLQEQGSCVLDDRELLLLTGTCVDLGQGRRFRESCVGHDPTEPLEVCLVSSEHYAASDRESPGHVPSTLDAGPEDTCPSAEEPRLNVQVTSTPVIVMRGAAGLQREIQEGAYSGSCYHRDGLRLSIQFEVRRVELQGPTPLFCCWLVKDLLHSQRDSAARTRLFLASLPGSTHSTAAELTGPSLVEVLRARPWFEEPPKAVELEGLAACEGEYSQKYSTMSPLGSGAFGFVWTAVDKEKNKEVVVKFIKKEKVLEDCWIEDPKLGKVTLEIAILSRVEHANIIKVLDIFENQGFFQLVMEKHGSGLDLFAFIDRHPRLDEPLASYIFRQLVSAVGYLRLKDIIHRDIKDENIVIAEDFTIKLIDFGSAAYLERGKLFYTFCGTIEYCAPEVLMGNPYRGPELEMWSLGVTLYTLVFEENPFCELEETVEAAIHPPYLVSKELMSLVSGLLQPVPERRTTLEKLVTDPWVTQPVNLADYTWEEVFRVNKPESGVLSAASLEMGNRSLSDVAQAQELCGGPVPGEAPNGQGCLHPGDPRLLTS", "details": "read-out: Residual Activity (%)", "outline": "as §1"}, "[22]": {"molecular_target": "T22, PDGFR-alpha (Homo sapiens, UniProt P16234)", "T22 construct": "purchased ProQinase", "details": "read-out: Residual Activity (%)", "outline": "as §1"}, "[23]": {"molecular_target": "T23, PKC-alpha (Homo sapiens, UniProt P17252)", "T23 construct": "purchased ProQinase", "details": "read-out: Residual Activity (%)", "outline": "as §1"}, "[24]": {"molecular_target": "T24, PKC-nu (Homo sapiens, UniProt O94806)", "T24 construct": "purchased ProQinase", "details": "read-out: Residual Activity (%)", "outline": "as §1"}, "[25]": {"molecular_target": "T25, ROCK1 (Homo sapiens, UniProt Q13464)", "T25 construct": "purchased ProQinase", "T25 sequence (Q13464 whole entry)": "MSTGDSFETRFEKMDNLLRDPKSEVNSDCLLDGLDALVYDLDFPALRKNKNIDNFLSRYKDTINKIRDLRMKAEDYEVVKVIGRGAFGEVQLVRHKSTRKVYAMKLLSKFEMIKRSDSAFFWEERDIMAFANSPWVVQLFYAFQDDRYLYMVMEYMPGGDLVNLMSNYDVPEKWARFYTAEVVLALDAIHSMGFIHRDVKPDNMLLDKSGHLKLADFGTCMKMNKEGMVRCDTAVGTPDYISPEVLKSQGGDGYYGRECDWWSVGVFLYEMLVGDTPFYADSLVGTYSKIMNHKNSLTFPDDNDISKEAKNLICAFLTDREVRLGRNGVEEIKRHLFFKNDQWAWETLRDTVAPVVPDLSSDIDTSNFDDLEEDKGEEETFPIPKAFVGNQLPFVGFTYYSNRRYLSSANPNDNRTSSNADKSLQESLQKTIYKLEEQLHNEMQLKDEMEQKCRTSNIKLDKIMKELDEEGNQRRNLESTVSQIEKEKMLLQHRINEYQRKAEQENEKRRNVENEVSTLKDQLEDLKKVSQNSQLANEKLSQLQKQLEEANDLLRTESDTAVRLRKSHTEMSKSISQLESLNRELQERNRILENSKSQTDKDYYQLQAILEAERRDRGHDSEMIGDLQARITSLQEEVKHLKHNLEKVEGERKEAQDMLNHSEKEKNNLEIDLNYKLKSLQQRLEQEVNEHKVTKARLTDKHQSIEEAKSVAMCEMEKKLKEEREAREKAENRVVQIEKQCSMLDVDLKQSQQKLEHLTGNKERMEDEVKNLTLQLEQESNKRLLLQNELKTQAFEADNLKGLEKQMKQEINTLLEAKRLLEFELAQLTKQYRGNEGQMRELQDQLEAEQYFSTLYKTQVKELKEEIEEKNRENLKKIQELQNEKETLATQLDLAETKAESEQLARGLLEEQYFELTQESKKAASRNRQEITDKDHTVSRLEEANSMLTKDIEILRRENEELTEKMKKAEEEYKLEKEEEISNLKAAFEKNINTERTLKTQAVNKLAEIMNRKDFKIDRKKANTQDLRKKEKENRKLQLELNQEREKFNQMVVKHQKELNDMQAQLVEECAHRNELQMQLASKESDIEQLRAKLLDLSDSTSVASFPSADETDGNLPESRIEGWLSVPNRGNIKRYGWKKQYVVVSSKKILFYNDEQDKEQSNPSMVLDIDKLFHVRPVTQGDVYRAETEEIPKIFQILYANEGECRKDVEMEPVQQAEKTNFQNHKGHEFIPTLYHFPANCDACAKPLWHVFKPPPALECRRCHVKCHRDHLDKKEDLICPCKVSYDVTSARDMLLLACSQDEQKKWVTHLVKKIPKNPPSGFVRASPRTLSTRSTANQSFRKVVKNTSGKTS", "details": "ROCK1, 1 µM; read-out: Residual Activity (%)", "outline": "as §1"}, "[26]": {"molecular_target": "T26, S6K-beta (Homo sapiens, UniProt Q9UBS0)", "T26 construct": "purchased ProQinase", "details": "read-out: Residual Activity (%)", "outline": "as §1"}, "[27]": {"molecular_target": "T27, TLK1 (Homo sapiens, UniProt Q9UKI8)", "T27 construct": "purchased ProQinase", "details": "TLK1, 1 µM; read-out: Residual Activity (%)", "outline": "as §1"}, "[28]": {"molecular_target": "T28, TRK-A (Homo sapiens, UniProt P04629)", "T28 construct": "purchased ProQinase", "details": "read-out: Residual Activity (%)", "outline": "as §1"}, "[29]": {"molecular_target": "T29, TTBK1 (Homo sapiens, UniProt Q5TCY1)", "T29 construct": "purchased ProQinase", "details": "TTBK1, 1 µM; read-out: Residual Activity (%)", "outline": "as §1"}}}
{"compound": "COc1ccc(-c2cc(C(=O)Nc3cc(-c4c(-c5ccc(F)cc5)noc4C(C)C)ccn3)n(CC3NCC(O)C3O)c2)cc1", "note": "(centres unmarked) [29d]", "values": [{"measurement": "remaining activity at 1 µM", "setting": "[1]", "result": 105, "unit": "%"}, {"measurement": "remaining activity at 1 µM", "setting": "[2]", "result": 107, "unit": "%"}, {"measurement": "remaining activity at 1 µM", "setting": "[3]", "result": 110, "unit": "%"}, {"measurement": "remaining activity at 1 µM", "setting": "[4]", "result": 119, "unit": "%"}, {"measurement": "remaining activity at 1 µM", "setting": "[5]", "result": 84, "unit": "%"}, {"measurement": "remaining activity at 1 µM", "setting": "[6]", "result": 102, "unit": "%"}, {"measurement": "remaining activity at 1 µM", "setting": "[7]", "result": 100, "unit": "%"}, {"measurement": "remaining activity at 1 µM", "setting": "[8]", "result": 120, "unit": "%"}, {"measurement": "remaining activity at 1 µM", "setting": "[9]", "result": 98, "unit": "%"}, {"measurement": "remaining activity at 1 µM", "setting": "[10]", "result": 89, "unit": "%"}, {"measurement": "remaining activity at 1 µM", "setting": "[11]", "result": 80, "unit": "%"}, {"measurement": "remaining activity at 1 µM", "setting": "[12]", "result": 122, "unit": "%"}, {"measurement": "remaining activity at 1 µM", "setting": "[13]", "result": 112, "unit": "%"}, {"measurement": "remaining activity at 1 µM", "setting": "[14]", "result": 109, "unit": "%"}, {"measurement": "remaining activity at 1 µM", "setting": "[15]", "result": 95, "unit": "%"}, {"measurement": "remaining activity at 1 µM", "setting": "[16]", "result": 108, "unit": "%"}, {"measurement": "remaining activity at 1 µM", "setting": "[17]", "result": 94, "unit": "%"}, {"measurement": "remaining activity at 1 µM", "setting": "[18]", "result": 98, "unit": "%"}, {"measurement": "remaining activity at 1 µM", "setting": "[19]", "result": 88, "unit": "%"}, {"measurement": "remaining activity at 1 µM", "setting": "[20]", "result": 97, "unit": "%"}, {"measurement": "remaining activity at 1 µM", "setting": "[21]", "result": 99, "unit": "%"}, {"measurement": "remaining activity at 1 µM", "setting": "[22]", "result": 89, "unit": "%"}, {"measurement": "remaining activity at 1 µM", "setting": "[23]", "result": 107, "unit": "%"}, {"measurement": "remaining activity at 1 µM", "setting": "[24]", "result": 90, "unit": "%"}, {"measurement": "remaining activity at 1 µM", "setting": "[25]", "result": 92, "unit": "%"}, {"measurement": "remaining activity at 1 µM", "setting": "[26]", "result": 96, "unit": "%"}, {"measurement": "remaining activity at 1 µM", "setting": "[27]", "result": 77, "unit": "%"}, {"measurement": "remaining activity at 1 µM", "setting": "[28]", "result": 116, "unit": "%"}, {"measurement": "remaining activity at 1 µM", "setting": "[29]", "result": 104, "unit": "%"}]}
